Experimental data as given in patent US12568971B2, “Degradative method” (Catexel Technologies Limited, priority 2020, dated 2026).

Assays:
[1] = Dynamic viscosity of alginate solution after treatment (alginate depolymerisation), Brookfield cone/plate viscometer
[2] = as above; remark: listed apart in the source
Experimental: The bottle was placed in a warm water bath (50° C.) for 60 minutes before being removed and cooled in an ice bath. Finally, the dynamic viscosity was determined using a Brookfield viscosity meter as outlined below. Note 1: A 2 mM solution of [[…])2 (see description of stock 12 above) was mixed with equivalent volume of the 2 mM ascorbic acid stock solution (stock solution 7). Upon contact with the ascorbic acid, the catalyst turned from orange/red to red/purple. Note 2: 0.5 mL of both Me3-TACN ligand (stock solution 10) and MnSO4·H2O (stock solution 8) were mixed, stirred and used as a source of catalyst to be placed in the alginate solution. The dynamic viscosity of the samples was measured using a Brookfield HBDV-II cone/plate viscosity meter equipped with a spindle CPE-40. The viscometer was linked to a water bath to maintain the temperature at 25° C. The apparatus was controlled via computer (external mode) using the Rheocalc software. Initially, the viscometer was zeroed without spindle. Then, the spindle CPE-40 was installed and the gap between the bottom of the cone and the top of the cup was set according to the recommendations given by Brookfield. 0.5 mL of the treated alginate solution was placed in the cup of the viscometer using a disposable plastic syringe before the apparatus was closed and the test program launched. […] Results.

CC(=O)[O-].CC(=O)[O-].CN1CCN(C)CCN(C)CC1.CN1CCN(C)CCN(C)CC1.[Mn+4].[Mn+4].[O-2].[O-2].[O-2] [[Mn2(μ-O)3(Me3-TACN)2]^2+, [Mn^IVMn^IV(μ-O)3(1,4,7-trimethyl-1,4,7-triazacyclononane)2][CH3COO]2]
Dynamic Viscosity ([1]; 5 μM, pH 9.0, 20 mM H2O2, 4.7 mM NaHCO3, 1 h at 40° C.): 17.9 mPa · s
Dynamic Viscosity ([1]; 10 μM, 3 mM PAA, 0.185M Tris buffer, pH 8.5, 60 min at 30° C.): 94.8 mPa · s
Dynamic Viscosity ([1]; 10 μM, pH 10.5, 20 mM H2O2, 4.7 mM NaHCO3, 1 h at 40° C.): 65.5 mPa · s
Dynamic Viscosity ([2]; 2.5 μM, pH 8.0, 20 mM H2O2, 4.7 mM NaHCO3, 1 h at 50° C.): 85.0 mPa.s
Dynamic Viscosity ([2]; 2.5 μM, pH 8.5, 20 mM H2O2, 4.7 mM NaHCO3, 1 h at 50° C.): 72.2 mPa.s
Dynamic Viscosity ([2]; 2.5 μM, pH 9.0, 20 mM H2O2, 4.7 mM NaHCO3, 1 h at 50° C.): 55.7 mPa.s
Dynamic Viscosity ([2]; 2.5 μM, pH 9.0, 20 mM H2O2, 1 h at 50° C.): 99.7 mPa · s
Dynamic Viscosity ([2]; 2.5 μM, pH 9.5, 20 mM H2O2, 4.7 mM NaHCO3, 1 h at 50° C.): 59.5 mPa.s
Dynamic Viscosity ([2]; 2.5 μM, pH 9.5, 20 mM H2O2, 1 h at 50° C.): 76.8 mPa · s
Dynamic Viscosity ([2]; 2.5 μM, pH 10.0, 20 mM H2O2, 4.7 mM NaHCO3, 1 h at 50° C.): 81.2 mPa.s
Dynamic Viscosity ([2]; 2.5 μM, pH 10.0, 20 mM H2O2, 1 h at 50° C.): 60.6 mPa · s
Dynamic Viscosity ([2]; 2.5 μM, pH 10.5, 20 mM H2O2, 4.7 mM NaHCO3, 1 h at 50° C.): 67.5 mPa.s
Dynamic Viscosity ([2]; 2.5 μM, pH 10.5, 20 mM H2O2, 1 h at 50° C.): 56.6 mPa · s
Dynamic Viscosity ([2]; 2.5 μM, pH 11.0, 20 mM H2O2, 1 h at 50° C.): 64.8 mPa · s
Dynamic Viscosity ([2]; 5 μM, 20 mM ^tBuOOH, 0.25 g/L sodium tetraborate decahydrate pH 9, 60 min at 50° C.): 52.3 mPa · s
Dynamic Viscosity ([2]; 5 μM, pH 8.0, 20 mM H2O2, 4.7 mM NaHCO3, 1 h at 50° C.): 50.9 mPa.s
Dynamic Viscosity ([2]; 5 μM, pH 8.5, 20 mM H2O2, 4.7 mM NaHCO3, 1 h at 50° C.): 38.6 mPa.s
Dynamic Viscosity ([2]; 5 μM, pH 9, 10 mM H2O2, 4.7 mM NaHCO3, 60 min at 50° C.): 21.6 mPa · s
Dynamic Viscosity ([2]; 5 μM, pH 9.0, 20 mM H2O2, 4.7 mM NaHCO3, 1 h at 50° C.): 24.1 mPa.s
Dynamic Viscosity ([2]; 5 μM, pH 9.0, 20 mM H2O2, 1 h at 50° C.): 78.1 mPa · s
Dynamic Viscosity ([2]; 5 μM, pH 9.5, 20 mM H2O2, 4.7 mM NaHCO3, 1 h at 50° C.): 28.0 mPa.s
Dynamic Viscosity ([2]; 5 μM, pH 9.5, 20 mM H2O2, 1 h at 50° C.): 41.3 mPa · s
Dynamic Viscosity ([2]; 5 μM, pH 10, 10 mM H2O2, 4.7 mM NaHCO3, 60 min at 50° C.): 40.6 mPa · s
Dynamic Viscosity ([2]; 5 μM, pH 10.0, 20 mM H2O2, 4.7 mM NaHCO3, 1 h at 40° C.): 54.2 mPa · s
Dynamic Viscosity ([2]; 5 μM, pH 10.0, 20 mM H2O2, 4.7 mM NaHCO3, 1 h at 50° C.): 61.0 mPa.s
Dynamic Viscosity ([2]; 5 μM, pH 10.0, 20 mM H2O2, 1 h at 50° C.): 27.2 mPa · s
Dynamic Viscosity ([2]; 5 μM, pH 10.5, 20 mM H2O2, 4.7 mM NaHCO3, 1 h at 50° C.): 57.0 mPa.s
Dynamic Viscosity ([2]; 5 μM, pH 10.5, 20 mM H2O2, 1 h at 50° C.): 25.6 mPa · s
Dynamic Viscosity ([2]; 5 μM, pH 11, 10 mM H2O2, 4.7 mM NaHCO3, 60 min at 50° C.): 62.1 mPa · s
Dynamic Viscosity ([2]; 5 μM, pH 11.0, 20 mM H2O2, 1 h at 50° C.): 40.4 mPa · s
Dynamic Viscosity ([2]; 10 μM +1 molar equivalent ascorbic acid, pH 9.0, 0 mM Dequest 2047, 20 mM H2O2, 4.7 mM NaHCO3, 60 minutes at room temperature): 7.9 mPa · s
Dynamic Viscosity ([2]; 10 μM +1 molar equivalent ascorbic acid, pH 9.0, 20 mM H2O2, 4.7 mM NaHCO3, 60 minutes at 40° C.): 7.4 mPa.s
Dynamic Viscosity ([2]; 10 μM, no ascorbic acid, pH 9.5, 0 mM Dequest 2047, 20 mM H2O2, 4.7 mM NaHCO3, 60 minutes at room temperature): 19.3 mPa · s
Dynamic Viscosity ([2]; 10 μM, no ascorbic acid, pH 10.5, 1.0 mM Dequest 2047, 20 mM H2O2, 4.7 mM NaHCO3, 60 minutes at room temperature): 42.6 mPa · s
Dynamic Viscosity ([2]; 10 μM, 1.5 mM PAA + 1.5 mM H2O2, 0.185M Tris buffer, pH 8.5, 60 min at 30° C.): 85.3 mPa · s
Dynamic Viscosity ([2]; 10 μM, 3 mM H2O2, 0.185M Tris buffer, pH 8.5, 60 min at 30° C.): 49.4 mPa · s
Dynamic Viscosity ([2]; 10 μM, pH 8.0, 20 mM H2O2, 4.7 mM NaHCO3, 1 h at 40° C.): 24.2 mPa · s
Dynamic Viscosity ([2]; 10 μM, pH 8.0, 20 mM H2O2, 4.7 mM NaHCO3, 1 h at 50° C.): 26.3 mPa.s
Dynamic Viscosity ([2]; 10 μM, pH 8.5, 20 mM H2O2, 4.7 mM NaHCO3, 1 h at 50° C.): 16.1 mPa.s
Dynamic Viscosity ([2]; 10 μM, pH 9.0, 20 mM H2O2, 4.7 mM NaHCO3, 1 h at 40° C.): 9.1 mPa · s
Dynamic Viscosity ([2]; 10 μM, pH 9.0, 20 mM H2O2, 4.7 mM NaHCO3, 1 h at 50° C.): 9.4 mPa.s
Dynamic Viscosity ([2]; 10 μM, pH 9.0, 20 mM H2O2, 1 h at 50° C.): 47.9 mPa · s
Dynamic Viscosity ([2]; 10 μM, pH 9.5, 20 mM H2O2, 4.7 mM NaHCO3, 1 h at 40° C.): 10.5 mPa · s
Dynamic Viscosity ([2]; 10 μM, pH 9.5, 20 mM H2O2, 4.7 mM NaHCO3, 1 h at 50° C.): 12.8 mPa.s
Dynamic Viscosity ([2]; 10 μM, pH 9.5, 20 mM H2O2, 1 h at 50° C.): 16.2 mPa · s
Dynamic Viscosity ([2]; 10 μM, pH 10.0, 20 mM H2O2, 4.7 mM NaHCO3, 1 h at 50° C.): 38.1 mPa.s
Dynamic Viscosity ([2]; 10 μM, pH 10.0, 20 mM H2O2, 1 h at 50° C.): 11.9 mPa · s
Dynamic Viscosity ([2]; 10 μM, pH 10.5, 20 mM H2O2, 4.7 mM NaHCO3, 1 h at 50° C.): 49.4 mPa.s
Dynamic Viscosity ([2]; 10 μM, pH 10.5, 20 mM H2O2, 1 h at 50° C.): 11.1 mPa · s
Dynamic Viscosity ([2]; 10 μM, pH 11.0, 20 mM H2O2, 1 h at 50° C.): 37.4 mPa · s
Dynamic Viscosity ([2]; Entry 4: 2.5 μM catalyst, 2.5 μM ascorbic acid, 2.5 μM Me3TACN ligand, 20 mM H2O2, 4.7 mM NaHCO3, pH 10, 60 min at 50° C.): 72.5 mPa · s
Dynamic Viscosity ([2]; Entry 5: 2.5 μM catalyst, 2.5 μM ascorbic acid, 5 μM Me3TACN ligand, 20 mM H2O2, 4.7 mM NaHCO3, pH 10, 60 min at 50° C.): 69.3 mPa · s
Dynamic Viscosity ([2]; Entry 6: 2.5 μM catalyst, 2.5 μM ascorbic acid, 10 μM Me3TACN ligand, 20 mM H2O2, 4.7 mM NaHCO3, pH 10, 60 min at 50° C.): 61.7 mPa · s
Dynamic Viscosity ([2]; Entry 7: 2.5 μM catalyst, no ascorbic acid, no added ligand, 20 mM H2O2, 4.7 mM NaHCO3, pH 10, 60 min at 50° C.): 78.1 mPa · s
Dynamic Viscosity ([2]; Entry 8: 2.5 μM catalyst, 2.5 μM Me3TACN ligand, 20 mM H2O2, 4.7 mM NaHCO3, pH 10, 60 min at 50° C.): 73.3 mPa · s
Dynamic Viscosity ([2]; Entry 9: 2.5 μM catalyst, 5 μM Me3TACN ligand, 20 mM H2O2, 4.7 mM NaHCO3, pH 10, 60 min at 50° C.): 66.6 mPa · s
Dynamic Viscosity ([2]; Entry 10: 2.5 μM catalyst, 10 μM Me3TACN ligand, 20 mM H2O2, 4.7 mM NaHCO3, pH 10, 60 min at 50° C.): 56.8 mPa · s
Dynamic Viscosity ([2]; Entry 11: 5 μM catalyst, no added ligand, 20 mM H2O2, 4.7 mM NaHCO3, pH 10, 60 min at 50° C.): 61.0 mPa · s
Dynamic Viscosity ([2]; Entry 12: 5 μM catalyst, 5 μM Me3TACN ligand, 20 mM H2O2, 4.7 mM NaHCO3, pH 10, 60 min at 50° C.): 54.0 mPa · s
Dynamic Viscosity ([2]; Entry 13: 5 μM catalyst, 10 μM Me3TACN ligand, 20 mM H2O2, 4.7 mM NaHCO3, pH 10, 60 min at 50° C.): 47.7 mPa · s
Dynamic Viscosity ([2]; Entry 14: 5 μM catalyst, 20 μM Me3TACN ligand, 20 mM H2O2, 4.7 mM NaHCO3, pH 10, 60 min at 50° C.): 38.1 mPa · s
